According to patent US10251394B2, “Molecules having pesticidal utility, and intermediates, compositions, and processes, related thereto” (Dow AgroSciences LLC, priority 2016, dated 2019):

Experiments:
Assay type in all cases: in vivo
[1] = test system: Beet Armyworm (Spodoptera exigua); assay: Bioassay on Beet Armyworm (BAW), 128-well diet tray assay; conditions: Beet Armyworm, Table ABC, read-out: BAW rating
How it was run: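 Second-instar larvae (one to five per well) placed on artificial diet surface-treated with 50 μg/cm^2 test molecule in 90:10 acetone-water, dried, eight wells per molecule. Held at 25° C, 14:10 light-dark, five to seven days; percent mortality recorded per well and averaged across the eight wells.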

[2] = test system: Cabbage Looper (Trichoplusia ni); assay: Bioassay on Cabbage Looper (CL), 128-well diet tray assay; conditions: Cabbage Looper, Table ABC, read-out: CL rating
How it was run: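 Second-instar larvae, one to five per well, placed on artificial diet surface-treated with 50 μg/cm^2 compound in acetone-water, eight wells per compound. Held 5-7 days at 25° C, 14:10 light-dark; percent mortality per well averaged across wells.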

[3] = test system: Green Peach Aphid (Myzus persicae); assay: Bioassay on Green Peach Aphid (GPA), foliar spray on cabbage seedlings; conditions: 72 h, Table ABC, read-out: GPA rating
Description: Example B: Bioassays on Green Peach Aphid (Myzus Persicae, MYZUPE) (“GPA”) Certain molecules disclosed in this document were tested against GPA using procedures described in the following example. In the reporting of the results, the “GPA & YFM Rating Table” was used (See Table Section). Cabbage seedlings grown in 3-inch pots, with 2-3 small (3-5 cm) true leaves, were used as test substrate. The seedlings were infested with 20-50 GPA (wingless adult and nymph stages) one day prior to chemical application. Four pots with individual seedlings were used for each treatment. Test molecules (2 mg) were dissolved in 2 mL of acetone/methanol (1:1) solvent, forming stock solutions of 1000 ppm test molecule. The stock solutions were diluted 5× with 0.025% Tween 20 in water to obtain the solution at 200 ppm test molecule. A hand-held aspirator-type sprayer was used for spraying a solution to both sides of […] leaves until runoff. Reference plants (solvent check) were sprayed with the diluent only containing 20% by volume of acetone/methanol (1:1) solvent. Treated plants were held in a holding room for three days at approximately 25° C. and ambient relative humidity (RH) prior to grading. Evaluation was conducted by counting the number of live aphids per plant under a microscope. Percent Control was measured by using Abbott's correction formula (W. S. Abbott, “A Method of Computing the Effectiveness of an Insecticide” J. Econ. Entomol. 18 (1925), pp. 265-267) as follows. Corrected % Control=100*(X−Y)/X • where • X=No. of live aphids on solvent check plants and • Y=No. of live aphids on treated plants The results are indicated in the table entitled “Table ABC: Biological Results” (See Table Section).

[4] = test system: Yellow Fever Mosquito (Aedes aegypti); assay: Bioassay on Yellow Fever Mosquito (YFM) larvae, 96-well plate; conditions: Table ABC
How it was run: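 About 1-day-old larvae in water with liver powder were added to wells holding compound from a 4000 ppm DMSO master diluted in 90:10 water:acetone. Plates covered and kept at room temperature for 3 days, then each well scored for mortality on a rating scale.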

| Compound | pest or weed control at 50 µg/cm2 [1] | pest or weed control at 50 µg/cm2 [2] | pest or weed control at 200 µg/mL [3] | YFM rating [4] |
| --- | --- | --- | --- | --- |
| O=C(CNC(=O)c1ccc(/C(F)=C/C(c2cc(F)c(F)c(F)c2)C(F)(F)F)cc1C(F)(F)F)NCC(F)(F)F (stereo not shown) [F160, (Z)—N-(2-Oxo-2-((2,2,2-trifluoroethyl)amino)ethyl)-4-(1,4,4,4-tetrafluoro-3-(3,4,5-trifluorophenyl)but-1-en-1-yl)-2-(trifluoromethyl)benzamide] | 50 to 100% | 50 to 100% | 80 to 100% | A (80-100) |
| CCN(CC(F)(F)F)C(=O)CNC(=O)c1ccc(/C(F)=C/C(c2cc(Cl)c(Cl)c(Cl)c2)C(F)(F)F)cc1C(F)(F)F (stereo not shown) [F167, (Z)—N-(2-(ethyl(2,2,2-trifluoroethyl)amino)-2-oxoethyl)-4-(1,4,4,4-tetrafluoro-3-(3,4,5-trichlorophenyl)but-1-en-1-yl)-2-(trifluoromethyl)benzamide] | 50 to 100% | 50 to 100% | 80 to 100% | A (80-100) |
| O=C(N[C@@H]1CON(CC(F)(F)F)C1=O)c1ccc(/C(F)=C/C(c2cc(Cl)c(Cl)c(Cl)c2)C(F)F)cc1C(F)(F)F (stereo partly drawn) [F177, N—((R)-3-Oxo-2-(2,2,2-trifluoroethyl)isoxazolidin-4-yl)-4-((Z)-1,4,4-trifluoro-3-(3,4,5-trichlorophenyl)but-1-en-1-yl)-2-(trifluoromethyl)benzamide] | 50 to 100% | 50 to 100% | 80 to 100% | A (80-100) |
| CN(CC(F)(F)F)C(=O)CNC(=O)c1ccc(/C(F)=C/C(c2ccc(F)c(Cl)c2)C(F)(F)F)cc1C(F)(F)F (stereo not shown) [PF6, (Z)-4-(3-(3-Chloro-4-fluorophenyl)-1,4,4,4-tetrafluorobut-1-en-1-yl)-N-(2-(methyl(2,2,2-trifluoroethyl)amino]-2-oxoethyl)-2-(trifluoromethyl)benzamide] | 50 to 100% | 50 to 100% | 80 to 100% | A (80-100) |
| Cc1cc(C(/C=C(\F)c2ccc(C(=O)NC3(C(=O)N(C)CC(F)(F)F)CC3)c(C(F)(F)F)c2)C(F)(F)F)cc(Cl)c1Cl (stereo not shown) [PF16, (Z)-4-(3-(3,4-Dichloro-5-methylphenyl)-1,4,4,4-tetrafluorobut-1-en-1-yl)-N-(1-(methyl(2,2,2-trifluoroethyl)carbamoyl)cyclopropyl)-2-(trifluoromethyl)benzamide] | 50 to 100% | 50 to 100% | 0 to 80% | A (80-100) |
| CN(CC(F)(F)F)C(=O)CNC(=O)c1ccc(/C(F)=C/C(c2ccc(Br)c(Cl)c2)C(F)(F)F)cc1C(F)(F)F (stereo not shown) [PF24, (Z)-4-(3-(4-Bromo-3-chlorophenyl)-1,4,4,4-tetrafluorobut-1-en-1-yl)-N-(2-(methyl(2,2,2-trifluoroethyl)amino)-2-oxoethyl)-2-(trifluoromethyl)benzamide] | 50 to 100% | 50 to 100% | 80 to 100% | A (80-100) |
| O=C(NC1(C(=O)NCC(F)(F)F)CC1)c1ccc(/C(F)=C/C(c2ccc(Br)c(Cl)c2)C(F)(F)F)cc1C(F)(F)F (stereo not shown) [PF27] | 50 to 100% | 50 to 100% | 80 to 100% | B (More than 0-Less than 80) |
